Data: patent publication US20010031282A1, “Process for the manufacture of a pulverous preparation” (ROCHE VITAMINS INC., priority 1996, published 2001)
Like-named read-outs stand apart in the source and are kept apart here.

Key:
[1] = Solubility of pharmaceuticals in dimethylether (Example 7); format: physicochemical
Procedure: (§1) A comparison of solubility's of a number of pharmaceuticals was performed in the following way:
(§2) Approximately 3-5 g of the pharmaceutical was slightly compressed in an uniaxial press to avoid the formation of a stable suspension. The so compressed powder was given in a pressure chamber with a sapphire glass (30 ml volume). The temperature of the pressure chamber was controlled by water bath. Then the pressure in the chamber was increased using the corresponding gas and equilibrated for 1-3 hours. After equilibration a defined sample (1.0 ml) was drawn under constant pressure and temperature conditions using a high pressure line with a defined volume. […] The sample container was afterwards rinsed with the same liquid to collect the residues of the substance in the sample container.
(§3) The solubility (G/V) was determined either by HPLC or gravimetrically after removing the liquid.

[2] = Solubility of pharmaceuticals in carbon dioxide (Example 7); format: physicochemical
Procedure: as §1, §2, §3

[3] = Volume weighted particle size distribution after spraying (Examples 8, 9); format: physicochemical; conditions: dissolved at 40° C., 200×10^5 Pa, sprayed into second autoclave
Procedure: 100 g of solid Orlistat in a container with two sinter plates was charged into an autoclave having a volume of 6 l. The autoclave was kept at a temperature of 40° C. with a water bath. Then the autoclave was filled with gas up to a pressure of 200×10^5 Pa and equilibrated for 90 min. The autoclave was connected to a second autoclave via a heated high pressure line, kept at 40° C. This second autoclave has a volume of 4 l. The dissolved Orlistat was sprayed into this second autoclave. Thereby the pressure of the first autoclave was kept constant at 200×10^5 Pa by pumping in additional gas. The resulting volume weighted particle size distribution is as follows: 100 g of solid Saquinavir in a container with two sinter plates was charged into an autoclave having a volume of 6 l. The autoclave was kept at a temperature of 40° C. with a water bath. Then the autoclave was filled with gas up to a pressure of 200×10^5 Pa and equilibrated for 90 min. The autoclave was connected to a second autoclave via a heated high pressure line, kept at 40° C. This second autoclave has a volume of 4 l. The dissolved Saquinavir was sprayed into this second autoclave. Thereby the pressure of the first autoclave was kept constant at 200×10^5 Pa by pumping in additional gas. The resulting volume weighted particle size distribution is as follows: […]

[4] = Procedure: 250 g of solid trans-apoester (Ethyl-8′-apo-β-carotene-8′oate) were charged into an autoclave. The autoclave was adjusted to a temperature of 67° C. […] 1003 g of the solution was sprayed into a spray-tower via a nozzle having a bore hole of 0.2 mm. The flow rate was 84 g/min. During the spray procedure the pressure in the autoclave was maintained at 150×10^5 Pa by supplementation with fresh dimethyl ether. The sample composition was determined gravimetrically.
[5] = carbon dioxide or dinitrogen monoxide, pressures up to 500 bar; cited from earlier work
[6] = Solubility / miscibility of β-carotene in dimethyl ether; format: physicochemical
Procedure: It has now been discovered that dimethyl ether is useful as a solvent for β-carotene in processes such as those described above where the material to be produced as a powder is dissolved in a solvent at high temperature and pressure, and then the pressure is reduced whereby the solubility of the dissolved material decreases to the point where it precipitates from the solution as a fine powder. […] From PCT Patent Publication WO 96/15133 it is already known that dimethyl ether is an excellent solvent at elevated temperature and pressure conditions. The solubility of β-carotene in liquid dimethyl ether is strongly temperature dependent. About 1.1 wt. % of β-carotene dissolve in liquid dimethyl ether (vapour pressure 4 bar) at 25° C. At 60° C. (vapour pressure 15 bar) already 2.7 wt. % dissolve. At higher pressures (up to 300 bar) the solubility is practically not increased in this temperature region.
Thus, a homogeneous solution of β-carotene and dimethyl ether exists at 105° C. and pressures above 140 bar.
250 g of solid trans-β-carotene were charged into an autoclave having a volume of 1 l. The autoclave was thermostatted electrically to a temperature of 105° C. 500 g of dimethyl ether (cosmetic grade) were pumped into the autoclave. Dissolution of the carotene took about 60 minutes, with shaking of the autoclave. The pressure was then 175×10^5 Pa. A sample was taken at both the top and bottom lids of the autoclave. The sample compositions were determined gravimetrically. Both samples gave a carotene content of 33 wt. % and a dimethyl ether content of 67 wt. %, i.e. a homogeneous phase of carotene and dimethyl ether was present in the autoclave.

[7] = cited from earlier work
[8] = 500 bar, cited from earlier work
[9] = Stability of β-carotene in liquid solutions with highly compressible gases; format: physicochemical; conditions: temperatures in the region of its melting point of 180° C.
Procedure: In analogy to the procedure described in WO 95/21688 it has been investigated whether β-carotene forms liquid solutions with the mentioned and other highly compressible substances. β-Carotene forms liquid solutions with the gases only at temperatures in the region of its melting point of 180° C.

## COc1ccccc1Oc1c(NS(=O)(=O)c2ccc(C(C)(C)C)cc2)nc(-c2ncccn2)nc1OCCO [Bosentan]
[1]; 45° C./200×10^5 Pa
  solubility (CH3—O—CH3): 9.0 % (g/V)
[2]; 45° C./200×10^5 Pa
  solubility (CO2): <0.1 % (g/V)

## CC1=C(/C=C/C(C)=C/C=C/C(C)=C\C(=O)O)C(C)(C)CCC1 [Isotretionin]
[1]; 45° C./200×10^5 Pa
  solubility (CH3—O—CH3): 6.0 % (g/V)
[2]; 45° C./200×10^5 Pa
  solubility (CO2): 0.3 % (g/V)

## O=C(NCCN1CCOCC1)c1ccc(Cl)cc1 [Moclobemide]
[1]; 45° C./200×10^5 Pa
  solubility (CH3—O—CH3): 3.7 % (g/V)
[2]; 45° C./200×10^5 Pa
  solubility (CO2): 0.35 % (g/V)

## CCCCCCCCCCC[C@@H](C[C@@H]1OC(=O)[C@H]1CCCCCC)OC(=O)[C@H](CC(C)C)NC=O [Orlistat]
[1]; 20° C./4.5×10^5 Pa
  solubility (CH3—O—CH3): 17.8 % (g/V)
[2]; 30° C./100×10^5 Pa
  solubility (CO2): 0.6 % (g/V)
[3]
  particle size, 10% of the particles (volume weighted): ≦0.40 μm
  particle size, 50% of the particles (volume weighted): ≦1.02 μm
  particle size, 90% of the particles (volume weighted): ≦2.43 μm

## CC(C)(C)NC(=O)[C@@H]1C[C@@H]2CCCC[C@@H]2CN1C[C@@H](O)[C@H](Cc1ccccc1)NC(=O)[C@H](CC(N)=O)NC(=O)c1ccc2ccccc2n1 [Saquinavir]
[1]; 25° C./100×10^5 Pa
  solubility (CH3—O—CH3): >10 % (g/V)
[2]; 45° C./200×10^5 Pa
  solubility (CO2): <0.1 % (g/V)
[3]
  particle size, 10% of the particles (volume weighted): ≦0.4 μm
  particle size, 50% of the particles (volume weighted): ≦0.9 μm
  particle size, 90% of the particles (volume weighted): ≦1.8 μm

## CCOC(=O)/C(C)=C/C=C/C(C)=C/C=C/C=C(C)/C=C/C=C(C)/C=C/C1=C(C)CCCC1(C)C [apoester, Ethyl-8′-apo-β-carotene-8′oate]
[4]; 67° C., 150×10^5 Pa, equilibrated 30 minutes
  content of the apoester in the sprayed dimethyl ether solution (gravimetric): 10 wt %
[4]; Example 6, sprayed from dimethyl ether, 67° C., 150×10^5 Pa, nozzle 0.2 mm
  particle size: 9 μm
[4]; Example 10, powder with gelatin/sucrose matrix, starch catch process
  mean particle size: 0.23 μm

## CC1=C(/C=C/C(C)=C/C=C/C(C)=C/C=C/C=C(C)/C=C/C=C(C)/C=C/C2=C(C)CCCC2(C)C)C(C)(C)CCC1 [β-carotene]
[5]
  β-carotene concentration in supercritical gases: 0.01 wt. %
[6]; 25° C., vapour pressure 4 bar
  solubility in liquid dimethyl ether: About 1.1 wt. %
[6]; 60° C., vapour pressure 15 bar
  solubility in liquid dimethyl ether: 2.7 wt. %
[6]; 105° C., 175×10^5 Pa, Example 1
  carotene content of the homogeneous dimethyl ether phase (gravimetric): 33 wt. %
[6]; 105° C., pressures above 140 bar
  miscibility with dimethyl ether: miscible without limitation in any ratio
[7]; 15° C.
  dissolution in liquid sulphur dioxide: 0.59 wt. %
[7]; ethylene, 55° C., 500 bar
  highest concentration in supercritical fluids (ethylene): 0.035 wt. %
[7]; liquid solvents except CS2
  concentration in the solvents which are liquid at room temperature: below 1 wt. %
[7]; room temperature
  solubility in CS2: 3.5 wt. %
[8]; 35° C.
  solubility in carbon dioxide: 0.00049 wt. %
[8]; 55° C.
  solubility in carbon dioxide: 0.0016 wt. %
[9]
  stability in liquid solution with the gases: isomerizes or decomposes after a very short time
